Results from ChEMBL document CHEMBL3102750 (J Med Chem, 2013).

Assays:
Type in all cases: functional, cell-based
[1] = target: T1, Muscarinic acetylcholine receptor M5 (Homo sapiens, UniProt P08912); experiment: Negative allosteric modulation of human muscarinic acetylcholine receptor M5 expressed in CHO cells assessed as inhibition of acetylcholine-induced calcium mobilization incubated for 150 secs prior to acetylcholine induction by Fluo-4 AM staining-based fluorescence assay
T1 sequence (P08912 whole entry): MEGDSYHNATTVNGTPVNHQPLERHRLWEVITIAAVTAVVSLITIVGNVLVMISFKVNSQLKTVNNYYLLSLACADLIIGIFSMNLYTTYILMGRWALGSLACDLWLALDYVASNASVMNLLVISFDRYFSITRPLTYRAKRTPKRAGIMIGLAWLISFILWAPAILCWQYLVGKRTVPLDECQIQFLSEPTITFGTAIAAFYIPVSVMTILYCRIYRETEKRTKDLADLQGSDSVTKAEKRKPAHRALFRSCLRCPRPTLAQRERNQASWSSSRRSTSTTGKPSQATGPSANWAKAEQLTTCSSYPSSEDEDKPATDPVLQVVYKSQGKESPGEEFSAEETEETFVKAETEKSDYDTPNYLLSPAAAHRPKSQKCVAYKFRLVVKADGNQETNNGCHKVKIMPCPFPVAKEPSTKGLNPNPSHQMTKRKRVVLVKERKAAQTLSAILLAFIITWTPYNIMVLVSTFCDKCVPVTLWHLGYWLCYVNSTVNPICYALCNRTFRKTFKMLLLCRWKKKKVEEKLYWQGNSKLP

[2] = target: T2, Muscarinic acetylcholine receptor M5 (Homo sapiens) (UniProt P08912); experiment: Negative allosteric modulation of human muscarinic acetylcholine receptor M5 expressed in CHO cells assessed as reduction of acetylcholine-induced calcium mobilization at 10 uM incubated for 150 secs prior to acetylcholine induction by Fluo-4 AM staining-based fluorescence assay relative to control; design: scale not given: the % may be the effect or the level left
T2 sequence (whole entry): T1 sequence (P08912 whole entry)

[3] = target: T3, Muscarinic acetylcholine receptor M1 (Homo sapiens, UniProt P11229); experiment: Negative allosteric modulation of human muscarinic acetylcholine receptor M1 expressed in CHO cells assessed as inhibition of acetylcholine-induced calcium mobilization incubated for 150 secs prior to acetylcholine induction by Fluo-4 AM staining-based fluorescence assay
T3 sequence (P11229 whole entry): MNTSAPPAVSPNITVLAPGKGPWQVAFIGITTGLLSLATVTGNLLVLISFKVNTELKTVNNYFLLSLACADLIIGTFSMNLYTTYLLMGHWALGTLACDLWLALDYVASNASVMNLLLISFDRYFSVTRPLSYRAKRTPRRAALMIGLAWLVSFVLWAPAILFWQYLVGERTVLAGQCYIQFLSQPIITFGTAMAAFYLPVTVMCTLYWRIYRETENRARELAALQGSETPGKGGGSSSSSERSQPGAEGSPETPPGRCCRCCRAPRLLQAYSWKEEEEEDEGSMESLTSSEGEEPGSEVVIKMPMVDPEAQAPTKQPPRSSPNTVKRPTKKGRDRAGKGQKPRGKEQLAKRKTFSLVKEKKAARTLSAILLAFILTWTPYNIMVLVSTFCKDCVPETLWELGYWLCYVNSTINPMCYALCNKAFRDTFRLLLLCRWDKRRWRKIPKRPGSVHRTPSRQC

[4] = target: T4, Muscarinic acetylcholine receptor M2 (Homo sapiens, UniProt P08172); experiment: Negative allosteric modulation of human muscarinic acetylcholine receptor M2 expressed in CHO cells assessed as inhibition of acetylcholine-induced calcium mobilization incubated for 150 secs prior to acetylcholine induction by Fluo-4 AM staining-based fluorescence assay
T4 sequence (P08172 whole entry): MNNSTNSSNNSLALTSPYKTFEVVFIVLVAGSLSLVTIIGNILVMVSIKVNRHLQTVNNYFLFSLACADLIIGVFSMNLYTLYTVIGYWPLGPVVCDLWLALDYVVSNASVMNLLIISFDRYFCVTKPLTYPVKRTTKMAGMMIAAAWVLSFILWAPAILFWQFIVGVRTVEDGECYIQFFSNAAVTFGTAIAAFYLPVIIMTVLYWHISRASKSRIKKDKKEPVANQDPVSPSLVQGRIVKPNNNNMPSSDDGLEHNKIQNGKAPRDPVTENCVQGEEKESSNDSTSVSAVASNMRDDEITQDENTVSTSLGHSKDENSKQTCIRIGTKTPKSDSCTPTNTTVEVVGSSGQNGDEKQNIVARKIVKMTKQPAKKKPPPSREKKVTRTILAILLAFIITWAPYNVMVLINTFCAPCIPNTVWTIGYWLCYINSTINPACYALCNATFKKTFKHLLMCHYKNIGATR

[5] = target: Muscarinic acetylcholine receptor M3 (Homo sapiens, UniProt P20309); experiment: Negative allosteric modulation of human muscarinic acetylcholine receptor M3 expressed in CHO cells assessed as inhibition of acetylcholine-induced calcium mobilization incubated for 150 secs prior to acetylcholine induction by Fluo-4 AM staining-based fluorescence assay
Sequence of Muscarinic acetylcholine receptor M3 (P20309 whole entry): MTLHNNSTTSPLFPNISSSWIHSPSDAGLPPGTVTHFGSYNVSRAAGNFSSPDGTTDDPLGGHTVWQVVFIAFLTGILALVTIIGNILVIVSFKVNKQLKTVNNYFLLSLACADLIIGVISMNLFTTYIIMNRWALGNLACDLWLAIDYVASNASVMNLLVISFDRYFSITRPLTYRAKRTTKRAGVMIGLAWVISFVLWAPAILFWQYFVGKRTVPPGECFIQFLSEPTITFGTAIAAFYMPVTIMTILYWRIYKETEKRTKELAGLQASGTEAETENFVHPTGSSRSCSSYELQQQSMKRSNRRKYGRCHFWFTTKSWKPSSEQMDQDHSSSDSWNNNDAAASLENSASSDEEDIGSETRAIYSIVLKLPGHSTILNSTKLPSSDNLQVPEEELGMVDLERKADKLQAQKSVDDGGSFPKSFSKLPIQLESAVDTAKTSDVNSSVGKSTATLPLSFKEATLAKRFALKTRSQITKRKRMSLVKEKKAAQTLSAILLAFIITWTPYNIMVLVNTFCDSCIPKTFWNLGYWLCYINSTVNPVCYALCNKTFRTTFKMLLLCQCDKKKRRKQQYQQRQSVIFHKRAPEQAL

[6] = target: T5, Muscarinic acetylcholine receptor M4 (Homo sapiens, UniProt P08173); experiment: Negative allosteric modulation of human muscarinic acetylcholine receptor M4 expressed in CHO cells assessed as inhibition of acetylcholine-induced calcium mobilization incubated for 150 secs prior to acetylcholine induction by Fluo-4 AM staining-based fluorescence assay
T5 sequence (P08173 whole entry): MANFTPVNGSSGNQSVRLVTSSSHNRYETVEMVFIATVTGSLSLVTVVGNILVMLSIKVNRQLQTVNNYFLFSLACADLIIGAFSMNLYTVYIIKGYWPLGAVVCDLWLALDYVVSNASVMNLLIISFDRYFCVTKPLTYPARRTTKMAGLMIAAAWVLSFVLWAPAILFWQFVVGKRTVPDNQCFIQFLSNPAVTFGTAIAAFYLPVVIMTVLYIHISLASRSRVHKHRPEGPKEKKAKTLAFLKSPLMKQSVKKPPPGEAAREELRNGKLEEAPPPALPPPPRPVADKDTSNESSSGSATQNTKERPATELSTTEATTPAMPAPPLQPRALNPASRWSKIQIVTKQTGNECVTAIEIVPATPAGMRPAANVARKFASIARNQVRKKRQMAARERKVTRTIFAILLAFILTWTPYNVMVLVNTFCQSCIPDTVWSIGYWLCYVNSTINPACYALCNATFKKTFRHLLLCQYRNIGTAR

[7] = target: T6, Muscarinic acetylcholine receptor M5 (Rattus norvegicus, UniProt P08911); experiment: Negative allosteric modulation of rat muscarinic acetylcholine receptor M5 expressed in CHO cells assessed as inhibition of acetylcholine-induced calcium mobilization incubated for 150 secs prior to acetylcholine induction by Fluo-4 AM staining-based fluorescence assay
T6 sequence (P08911 whole entry): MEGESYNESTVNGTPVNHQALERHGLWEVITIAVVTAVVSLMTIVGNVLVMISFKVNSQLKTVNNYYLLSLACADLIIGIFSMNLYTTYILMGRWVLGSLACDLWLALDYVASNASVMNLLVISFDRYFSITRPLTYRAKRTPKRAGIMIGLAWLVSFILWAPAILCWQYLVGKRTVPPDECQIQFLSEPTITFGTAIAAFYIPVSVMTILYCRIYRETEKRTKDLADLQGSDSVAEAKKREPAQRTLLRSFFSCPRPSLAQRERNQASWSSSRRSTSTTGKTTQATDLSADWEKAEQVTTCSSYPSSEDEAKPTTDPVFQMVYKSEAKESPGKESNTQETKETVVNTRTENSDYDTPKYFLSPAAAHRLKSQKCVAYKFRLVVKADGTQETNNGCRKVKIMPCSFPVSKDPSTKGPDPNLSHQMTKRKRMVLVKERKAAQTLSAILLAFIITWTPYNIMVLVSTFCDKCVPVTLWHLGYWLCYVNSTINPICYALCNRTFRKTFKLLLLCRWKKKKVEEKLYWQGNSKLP

Row | SMILES | IC50 [1] | Activity [2] | also measured
1 | O=C(c1ccc(OC(F)(F)F)cc1)N1CCN2C(=O)c3ccccc3C12c1ccc(F)cc1 (stereo unspecified) | > 10 µM | – | –
2 | O=C(c1ccc(F)c(F)c1)N1CCN2C(=O)c3ccccc3C12c1ccc(Cl)cc1 (racemic) | – | 0.1% | IC50 [3]: > 30 µM; IC50 [4]: > 30 µM; IC50 [5]: > 30 µM; IC50 [6]: > 30 µM
3 | O=C(c1ccc(C(F)(F)F)cc1)N1CCN2C(=O)c3ccccc3C12c1ccc(Cl)cc1 (stereo unspecified) | 2 µM | 0.7% | –
4 | Cc1ccc(C23c4ccccc4C(=O)N2CCN3C(=O)c2ccc(F)c(F)c2)cc1 (stereo unspecified) | 2.6 µM | -6.8% | –
5 | Cc1ccc(C(=O)N2CCN3C(=O)c4ccccc4C23c2ccc(F)cc2)cc1 (stereo unspecified) | > 10 µM | – | –
6 | Cc1ccc(C(=O)N2CCN3C(=O)c4ccccc4C23c2ccc(Cl)cc2)cc1 (stereo unspecified) | 2.6 µM | 0.1% | –
7 | Cc1ccc(C23c4ccccc4C(=O)N2CCN3C(=O)c2ccc(C(F)(F)F)cc2)cc1 (stereo unspecified) | > 10 µM | – | –
8 | O=C(c1ccc(SC(F)(F)F)cc1)N1CCN2C(=O)c3ccccc3C12c1ccc(F)cc1 (stereo unspecified) | 1.3 µM | -0.2% | –
9 | Cc1ccc(C23c4ccccc4C(=O)N2CCN3C(=O)c2ccc(OC(F)(F)F)cc2)cc1 (stereo unspecified) | 3.5 µM | -0.2% | –
10 | O=C(c1cccc(C(F)(F)F)c1)N1CCN2C(=O)c3ccccc3C12c1ccc(F)cc1 (stereo unspecified) | 2.1 µM | -2.4% | –
11 | O=C(c1ccc(SC(F)(F)F)cc1)N1CCN2C(=O)c3ccccc3C12c1ccc(Cl)cc1 (stereo unspecified) | 3 µM | -9.2% | –
12 | O=C(c1ccc(OC(F)(F)F)cc1)N1CCN2C(=O)c3ccccc3C12c1ccc(Cl)cc1 (stereo unspecified) | 2.3 µM | -5.3% | –
13 | Cc1ccc(C(=O)N2CCN3C(=O)c4ccccc4C23c2ccc(C)cc2)cc1 (stereo unspecified) | > 10 µM | – | –
14 | Cc1ccc(C23c4ccccc4C(=O)N2CCN3C(=O)c2cccc(C(F)(F)F)c2)cc1 (stereo unspecified) | > 10 µM | – | –
15 | Cc1ccc(C23c4ccccc4C(=O)N2CCN3C(=O)c2ccc(SC(F)(F)F)cc2)cc1 (stereo unspecified) | 4.1 µM | 4.1% | –
16 | O=C(c1ccc(C(F)(F)F)cc1)N1CCN2C(=O)c3ccccc3C12c1ccc(F)cc1 (stereo unspecified) | > 10 µM | – | –
17 | O=C(c1cccc(C(F)(F)F)c1)N1CCN2C(=O)c3ccccc3C12c1ccc(Cl)cc1 (stereo unspecified) | 4.9 µM | -7.2% | –

Now from value to molecule, other results behind:

Row | IC50 [1] | Activity [2] | SMILES | also measured
18 | 5.75 µM | 0% | O=C(c1cc(Cl)cc(Cl)c1)N1CCN2C(=O)c3ccccc3C12c1ccccc1 (stereo unspecified) | –
19 | 3.02 µM | -0.7% | O=C(c1cccc(C(F)(F)F)c1)N1CCN2C(=O)c3ccccc3C12c1ccccc1 (stereo unspecified) | –
20 | 1 µM | 2.8% | O=C(c1cc(F)cc(F)c1)N1CCN2C(=O)c3ccccc3C12c1ccc(Cl)cc1 (stereo unspecified) | –
21 | 3.49 µM | 41% | O=C(c1ccc(F)cc1)N1CCN2C(=O)c3ccccc3C12c1ccccc1 (stereo unspecified) | IC50 [7]: 5.67 µM; IC50 [3]: > 30 µM; IC50 [4]: > 30 µM; IC50 [5]: > 30 µM; IC50 [6]: > 30 µM
22 | > 10 µM | – | O=C(c1ccc(F)c(F)c1)N1CCN2C(=O)c3ccccc3C12c1ccc(F)cc1 (stereo unspecified) | –
23 | 3.8 µM | -2.2% | O=C(c1cc(F)cc(F)c1)N1CCN2C(=O)c3ccccc3C12c1ccccc1 (stereo unspecified) | –
24 | 1.38 µM | 0.5% | O=C(c1ccc(SC(F)(F)F)cc1)N1CCN2C(=O)c3ccccc3C12c1ccccc1 (stereo unspecified) | –
25 | > 10 µM | – | O=C(c1cc(F)cc(F)c1)N1CCN2C(=O)c3ccccc3C12c1ccc(F)cc1 (stereo unspecified) | –
26 | 2.3 µM | -1.1% | Cc1ccc(C23c4ccccc4C(=O)N2CCN3C(=O)c2cc(F)cc(F)c2)cc1 (stereo unspecified) | –
27 | 1.95 µM | -2.4% | O=C(c1ccc(C(F)(F)F)cc1)N1CCN2C(=O)c3ccccc3C12c1ccccc1 (stereo unspecified) | –
28 | 4.47 µM | 0.2% | O=C(c1ccc(OC(F)(F)F)cc1)N1CCN2C(=O)c3ccccc3C12c1ccccc1 (stereo unspecified) | –
